The nature of data set [1]: physical and chemical storage stability of polymorphic forms. The following applies: for physically stable, duration: ambient condition.
For data set [2] the following is noted: pH 5.4.
[3] abbreviates: 40° C. under 75% relative humidity.

The structures appear in SMILES notation. Like-named read-outs stand apart in the source and are kept apart here.

Usually aqueous solubility stands for the concentration that dissolves in the medium under given conditions. In general, Solubility refers to the concentration that dissolves in the medium under given conditions. Lower therefore signals a poorly soluble substance.

Turning to `CNCc1ccc(-c2[nH]c3cc(F)cc4c3c2CCNC4=O)cc1.O=P(O)(O)O` [Form I, phosphate salt of 8-fluoro-2-{4-[(methylamino)methyl]phenyl}-1,3,4,5-tetrahydro-6H-azepino[5,4,3-cd]indol-6-one], the “conversion to Form III (Hydrate B)” value in data set [1] (setting [3]) is reported as “after one week”. The “physically stable, duration” value in data set [1] was “at least 3 months”. This compound also came in with an aqueous solubility in data set [2] of 2800 µg/mL.
With `CNCc1ccc(-c2[nH]c3cc(F)cc4c3c2CCNC4=O)cc1.O=P(O)(O)O` [Form II, phosphate salt of 8-fluoro-2-{4-[(methylamino)methyl]phenyl}-1,3,4,5-tetrahydro-6H-azepino[5,4,3-cd]indol-6-one], the “conversion to Form III (Hydrate B)” value in data set [1] (25° C. under 90% relative humidity) is listed as “overnight”; in data set [1] (setting [3]), “after 1 week”. Moreover, the “physically stable, duration” value in data set [1] is reported as “at least 3 months”. In addition, the Solubility reads like this: (pH 3) 460 µg/mL; (pH 4) 390 µg/mL; (pH 5) 370 µg/mL; (pH 6) 320 µg/mL; (pH 7) 250 µg/mL; (pH 8) 190 µg/mL. This compound also came in with an aqueous solubility in data set [2] of 3000 µg/mL.
`CNCc1ccc(-c2[nH]c3cc(F)cc4c3c2CCNC4=O)cc1.O=P(O)(O)O` [Form III, phosphate salt of 8-fluoro-2-{4-[(methylamino)methyl]phenyl}-1,3,4,5-tetrahydro-6H-azepino[5,4,3-cd]indol-6-one] had an aqueous solubility in data set [2] of 2700 µg/mL.
Turning to `CNCc1ccc(-c2[nH]c3cc(F)cc4c3c2CCNC4=O)cc1.O=P(O)(O)O` [Form IV, phosphate salt of 8-fluoro-2-{4-[(methylamino)methyl]phenyl}-1,3,4,5-tetrahydro-6H-azepino[5,4,3-cd]indol-6-one], the aqueous solubility in data set [2] came to 4500 µg/mL.
As for `CNCc1ccc(-c2[nH]c3cc(F)cc4c3c2CCNC4=O)cc1.O=P(O)(O)O` [Form V, phosphate salt of 8-fluoro-2-{4-[(methylamino)methyl]phenyl}-1,3,4,5-tetrahydro-6H-azepino[5,4,3-cd]indol-6-one], in data set [1] (room temperature), the “physically and chemically stable, duration” value is given as “at least 3 months”.

The record behind these values is patent US7268126B2, “Polymorphic and amorphous forms of the phosphate salt of 8-fluoro-2-{4-[(methylamino)methyl]phenyl}-1,3,4,5-tetrahydro-6H-azepino[5,4,3-ce]indol-6-one” (Agouron Pharmaceuticals, Inc., priority 2004, dated 2007).
